Reference: ChEMBL document CHEMBL1201862, “PubChem BioAssay data set” (2004)
Activity calls are given as the source filed them.

Tests used:
[1] = target: Peroxisome proliferator-activated receptor gamma/Nuclear receptor coactivator 2 (Homo sapiens, UniProt P37231); type: functional;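 further: agonist potency for raising coactivator recruitment to the receptor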
[2] = target: Peroxisome proliferator-activated receptor gamma/Nuclear receptor coactivator 1 (Homo sapiens, UniProt P37231); type: functional;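 further: agonist potency as compounds enhance coactivator SRC-1 recruitment to PPARgamma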
[3] = target: Peroxisome proliferator-activated receptor gamma/Nuclear receptor coactivator 3 (Homo sapiens, UniProt P37231); type: functional;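 further: agonist potency for raising coactivator recruitment to the receptor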
[4] = target: Prothrombin (Homo sapiens, UniProt P00734); test: Thrombin 1536 HTS Dose Response Confirmation. [Related pubchem assays: 1046 (Thrombin 1536 HTS; hits were confirmed in this assay)]; type: functional
[5] = target: T1, RNA-binding protein pos-1 (Caenorhabditis elegans, UniProt G5EF15); test: inhibitors of POS-1/mex-3 RNA binding, dose response, biochemical, fluorescence polarization (AID 1964);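 further: purified POS-1 fused to maltose binding protein made in E. coli; potency of compounds blocking POS-1 binding to fluorescent RNA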
T1 sequence (G5EF15 whole entry): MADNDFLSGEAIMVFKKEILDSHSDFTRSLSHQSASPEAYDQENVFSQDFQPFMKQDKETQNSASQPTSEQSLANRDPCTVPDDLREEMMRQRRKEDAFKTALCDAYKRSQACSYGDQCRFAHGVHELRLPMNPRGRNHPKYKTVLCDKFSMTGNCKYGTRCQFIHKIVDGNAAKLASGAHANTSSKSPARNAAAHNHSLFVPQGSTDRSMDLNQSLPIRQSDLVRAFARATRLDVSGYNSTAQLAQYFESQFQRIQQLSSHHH

[6] = target: T2, Zinc finger protein mex-5 (Caenorhabditis elegans, UniProt Q9XUB2); test: MEX-5/TCR-2 RNA interaction inhibitors, dose response, biochemical, C. elegans, fluorescence polarization (AID 1960)
T2 sequence (Q9XUB2 whole entry): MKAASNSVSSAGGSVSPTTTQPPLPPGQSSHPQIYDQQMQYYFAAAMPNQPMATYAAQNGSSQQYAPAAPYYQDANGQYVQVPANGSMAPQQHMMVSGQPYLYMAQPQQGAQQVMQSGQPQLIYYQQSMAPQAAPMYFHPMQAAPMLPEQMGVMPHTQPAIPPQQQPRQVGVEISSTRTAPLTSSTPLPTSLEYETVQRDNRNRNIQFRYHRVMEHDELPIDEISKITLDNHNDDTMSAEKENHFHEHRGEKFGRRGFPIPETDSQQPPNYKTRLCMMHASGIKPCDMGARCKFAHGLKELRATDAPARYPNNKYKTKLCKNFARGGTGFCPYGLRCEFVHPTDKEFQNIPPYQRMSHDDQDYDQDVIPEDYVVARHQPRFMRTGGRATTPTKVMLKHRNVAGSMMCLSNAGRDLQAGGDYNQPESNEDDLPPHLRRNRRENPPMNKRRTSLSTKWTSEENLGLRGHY

[7] = target: Genome polyprotein (dengue virus type 2, UniProt P29990); test: Dengue-2 NS5 methyltransferase inhibitors, primary screen, biochemical, confirmation dose response (AID 588689); type: functional
[8] = target: T3, Rac GTPase-activating protein 1 (Homo sapiens, UniProt Q9H0H5); test: MgcRacGAP GTPase-activating activity inhibitors, confirmation, biochemical, ADP Hunter fluorescence, primary and confirmatory (AID 624330); type: functional
T3 sequence (Q9H0H5 whole entry): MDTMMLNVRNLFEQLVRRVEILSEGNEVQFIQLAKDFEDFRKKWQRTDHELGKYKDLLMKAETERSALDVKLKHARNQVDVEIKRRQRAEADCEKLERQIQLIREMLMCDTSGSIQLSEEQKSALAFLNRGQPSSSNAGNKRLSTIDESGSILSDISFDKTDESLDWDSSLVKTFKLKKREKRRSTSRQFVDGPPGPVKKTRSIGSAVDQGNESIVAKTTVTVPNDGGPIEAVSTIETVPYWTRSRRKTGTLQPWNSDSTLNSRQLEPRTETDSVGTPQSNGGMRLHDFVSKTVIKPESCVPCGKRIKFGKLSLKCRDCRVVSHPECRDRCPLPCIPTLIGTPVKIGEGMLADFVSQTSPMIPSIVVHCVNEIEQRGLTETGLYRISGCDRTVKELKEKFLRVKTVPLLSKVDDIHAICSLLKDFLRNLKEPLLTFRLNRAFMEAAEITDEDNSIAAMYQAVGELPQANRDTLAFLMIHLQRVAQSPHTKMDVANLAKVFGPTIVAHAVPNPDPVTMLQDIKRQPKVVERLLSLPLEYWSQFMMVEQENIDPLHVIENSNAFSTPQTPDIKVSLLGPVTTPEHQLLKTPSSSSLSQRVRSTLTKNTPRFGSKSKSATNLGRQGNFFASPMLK

[9] = target: Heat shock protein HSP 90-alpha (Homo sapiens, UniProt P07900); type: functional, organism-based

Peroxisome proliferator-activated receptor gamma/Nuclear receptor coactivator 2, sequence (P37231 whole entry): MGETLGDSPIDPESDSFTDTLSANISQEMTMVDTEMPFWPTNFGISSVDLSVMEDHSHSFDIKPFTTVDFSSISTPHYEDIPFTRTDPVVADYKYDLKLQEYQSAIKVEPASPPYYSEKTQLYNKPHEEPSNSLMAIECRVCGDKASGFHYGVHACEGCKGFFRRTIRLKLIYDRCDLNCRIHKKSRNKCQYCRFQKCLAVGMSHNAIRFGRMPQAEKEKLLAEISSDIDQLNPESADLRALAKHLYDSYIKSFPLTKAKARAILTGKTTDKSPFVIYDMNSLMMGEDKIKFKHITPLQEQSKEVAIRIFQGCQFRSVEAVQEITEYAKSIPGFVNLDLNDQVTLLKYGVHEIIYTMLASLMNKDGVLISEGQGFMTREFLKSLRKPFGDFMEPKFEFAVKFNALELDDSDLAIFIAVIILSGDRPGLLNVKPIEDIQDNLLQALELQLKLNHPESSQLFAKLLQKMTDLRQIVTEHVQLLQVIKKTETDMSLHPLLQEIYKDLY
Peroxisome proliferator-activated receptor gamma/Nuclear receptor coactivator 2, sequence (Q15596 whole entry, further chain): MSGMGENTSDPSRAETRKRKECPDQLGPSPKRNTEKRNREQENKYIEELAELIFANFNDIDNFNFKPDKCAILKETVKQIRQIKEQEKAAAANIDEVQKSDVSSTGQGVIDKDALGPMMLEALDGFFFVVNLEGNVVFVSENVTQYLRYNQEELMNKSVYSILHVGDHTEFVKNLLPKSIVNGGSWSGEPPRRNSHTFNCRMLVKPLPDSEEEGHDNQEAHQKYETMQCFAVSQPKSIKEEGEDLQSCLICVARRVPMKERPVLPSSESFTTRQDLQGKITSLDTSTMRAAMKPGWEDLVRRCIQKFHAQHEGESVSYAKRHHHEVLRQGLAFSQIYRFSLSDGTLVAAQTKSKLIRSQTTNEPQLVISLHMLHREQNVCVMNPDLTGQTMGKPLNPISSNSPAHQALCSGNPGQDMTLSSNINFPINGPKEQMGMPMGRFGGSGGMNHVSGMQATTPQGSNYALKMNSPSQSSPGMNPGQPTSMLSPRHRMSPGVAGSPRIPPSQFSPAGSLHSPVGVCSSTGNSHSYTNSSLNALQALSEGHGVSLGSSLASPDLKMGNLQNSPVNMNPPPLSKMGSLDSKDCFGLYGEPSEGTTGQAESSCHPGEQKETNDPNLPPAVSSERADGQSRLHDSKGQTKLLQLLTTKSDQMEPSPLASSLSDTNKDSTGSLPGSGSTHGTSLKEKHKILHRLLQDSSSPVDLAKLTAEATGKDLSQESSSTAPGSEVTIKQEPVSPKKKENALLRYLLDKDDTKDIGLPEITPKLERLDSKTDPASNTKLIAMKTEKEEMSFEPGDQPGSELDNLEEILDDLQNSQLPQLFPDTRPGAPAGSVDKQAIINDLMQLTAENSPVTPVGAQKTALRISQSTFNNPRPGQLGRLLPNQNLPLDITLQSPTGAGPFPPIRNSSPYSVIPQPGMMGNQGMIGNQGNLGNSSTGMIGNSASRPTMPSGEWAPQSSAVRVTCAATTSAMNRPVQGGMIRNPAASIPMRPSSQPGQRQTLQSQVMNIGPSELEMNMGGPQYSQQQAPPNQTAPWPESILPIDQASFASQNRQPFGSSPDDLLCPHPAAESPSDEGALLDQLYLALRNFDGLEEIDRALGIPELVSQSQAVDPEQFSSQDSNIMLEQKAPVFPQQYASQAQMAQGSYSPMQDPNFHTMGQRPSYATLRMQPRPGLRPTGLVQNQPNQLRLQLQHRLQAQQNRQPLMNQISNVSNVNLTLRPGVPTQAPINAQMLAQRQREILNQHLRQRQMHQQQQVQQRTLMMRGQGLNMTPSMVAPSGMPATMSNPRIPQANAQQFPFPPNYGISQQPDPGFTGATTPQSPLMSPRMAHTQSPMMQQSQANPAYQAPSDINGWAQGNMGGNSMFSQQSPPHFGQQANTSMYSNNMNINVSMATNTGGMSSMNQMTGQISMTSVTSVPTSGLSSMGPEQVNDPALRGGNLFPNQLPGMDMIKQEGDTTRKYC
Peroxisome proliferator-activated receptor gamma/Nuclear receptor coactivator 3, sequence (P37231 whole entry): as the sequence (P37231 whole entry) above
Peroxisome proliferator-activated receptor gamma/Nuclear receptor coactivator 3, sequence (Q9Y6Q9 whole entry, further chain): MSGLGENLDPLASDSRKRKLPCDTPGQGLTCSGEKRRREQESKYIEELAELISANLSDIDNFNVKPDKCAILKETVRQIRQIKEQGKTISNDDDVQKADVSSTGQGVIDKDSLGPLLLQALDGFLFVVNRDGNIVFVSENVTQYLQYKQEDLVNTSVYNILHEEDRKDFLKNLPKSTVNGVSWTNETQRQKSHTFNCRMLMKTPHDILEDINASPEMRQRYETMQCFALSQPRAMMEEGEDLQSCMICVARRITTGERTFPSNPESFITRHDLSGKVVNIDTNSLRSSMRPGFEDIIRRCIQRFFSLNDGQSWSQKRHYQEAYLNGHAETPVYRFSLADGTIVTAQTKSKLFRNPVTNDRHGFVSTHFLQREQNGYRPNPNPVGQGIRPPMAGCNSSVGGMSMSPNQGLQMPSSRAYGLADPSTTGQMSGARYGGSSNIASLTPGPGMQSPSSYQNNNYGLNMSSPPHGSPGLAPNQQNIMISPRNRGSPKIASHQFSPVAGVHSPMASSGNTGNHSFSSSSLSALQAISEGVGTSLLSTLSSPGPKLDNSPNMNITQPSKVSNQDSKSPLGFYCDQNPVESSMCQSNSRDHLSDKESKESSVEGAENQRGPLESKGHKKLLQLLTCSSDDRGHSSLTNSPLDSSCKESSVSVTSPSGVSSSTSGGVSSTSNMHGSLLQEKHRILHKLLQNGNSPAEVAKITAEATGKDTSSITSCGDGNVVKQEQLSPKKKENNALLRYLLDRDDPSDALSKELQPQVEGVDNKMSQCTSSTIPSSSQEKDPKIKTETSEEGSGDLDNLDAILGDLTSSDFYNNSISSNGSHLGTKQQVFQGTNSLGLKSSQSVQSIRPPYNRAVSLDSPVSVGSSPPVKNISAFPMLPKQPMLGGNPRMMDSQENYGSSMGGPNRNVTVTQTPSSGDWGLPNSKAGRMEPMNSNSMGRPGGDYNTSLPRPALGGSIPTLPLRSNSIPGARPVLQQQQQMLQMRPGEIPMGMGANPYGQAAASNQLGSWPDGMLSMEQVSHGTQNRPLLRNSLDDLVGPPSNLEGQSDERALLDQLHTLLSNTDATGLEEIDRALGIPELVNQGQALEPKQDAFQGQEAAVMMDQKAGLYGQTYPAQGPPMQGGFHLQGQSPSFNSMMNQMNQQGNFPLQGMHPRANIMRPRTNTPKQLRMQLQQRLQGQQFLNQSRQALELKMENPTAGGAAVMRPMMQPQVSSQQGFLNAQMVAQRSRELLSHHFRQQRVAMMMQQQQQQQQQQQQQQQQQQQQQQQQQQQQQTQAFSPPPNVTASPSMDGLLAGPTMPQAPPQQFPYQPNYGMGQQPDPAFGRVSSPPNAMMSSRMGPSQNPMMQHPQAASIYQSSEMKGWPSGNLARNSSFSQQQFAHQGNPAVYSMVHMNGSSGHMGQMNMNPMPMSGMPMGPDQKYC
Genome polyprotein, sequence (P29990 2492-3391 limits assumed): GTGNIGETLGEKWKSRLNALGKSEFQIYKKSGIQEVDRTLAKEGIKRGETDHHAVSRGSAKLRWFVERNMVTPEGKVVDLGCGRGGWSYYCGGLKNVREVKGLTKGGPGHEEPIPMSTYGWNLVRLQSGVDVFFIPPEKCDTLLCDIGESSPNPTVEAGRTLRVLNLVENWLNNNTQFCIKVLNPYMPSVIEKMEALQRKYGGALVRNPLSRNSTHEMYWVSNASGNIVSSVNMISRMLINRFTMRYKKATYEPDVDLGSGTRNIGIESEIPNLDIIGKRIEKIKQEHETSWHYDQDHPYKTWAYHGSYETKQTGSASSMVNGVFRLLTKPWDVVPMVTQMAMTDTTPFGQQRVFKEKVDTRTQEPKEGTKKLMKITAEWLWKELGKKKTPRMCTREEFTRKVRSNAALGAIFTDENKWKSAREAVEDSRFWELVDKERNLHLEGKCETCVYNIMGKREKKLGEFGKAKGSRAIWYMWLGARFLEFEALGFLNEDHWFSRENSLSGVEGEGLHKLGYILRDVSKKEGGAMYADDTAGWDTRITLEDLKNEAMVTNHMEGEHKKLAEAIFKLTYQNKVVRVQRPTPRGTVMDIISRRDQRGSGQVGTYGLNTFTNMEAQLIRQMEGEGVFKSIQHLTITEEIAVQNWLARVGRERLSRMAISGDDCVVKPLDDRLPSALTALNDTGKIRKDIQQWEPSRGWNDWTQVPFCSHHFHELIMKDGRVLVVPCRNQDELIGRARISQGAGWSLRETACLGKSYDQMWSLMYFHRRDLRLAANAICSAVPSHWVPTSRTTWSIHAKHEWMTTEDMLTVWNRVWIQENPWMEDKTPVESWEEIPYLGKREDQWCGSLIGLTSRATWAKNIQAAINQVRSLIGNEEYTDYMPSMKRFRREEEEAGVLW

With `O=c1c2ccccc2nc(-c2ccccc2)n1CCCN1CCOCC1` the EC50 [1] was > 79.4 µM (not active), the EC50 [2] was > 79.4 µM (not active) and the EC50 [3] was > 79.4 µM (not active).

In the case of `O=C(CSc1nc2nncc-2c(O)[nH]1)N1CCCCC1`, the IC50 [4] is reported as > 50 µM (not active).

For `CSc1sccc1/C=C(/C#N)C(=O)c1ccco1`, the EC50 [5] was > 300 µM (not active), the EC50 [6] was > 300 µM (not active) and the IC50 [7] was > 100 µM (active). The IC50 [8] was 22.8 µM (active).

With `C=CCn1c(Cc2cccs2)nnc1SCC(=O)c1ccc(F)cc1` the EC50 [1] was > 79.4 µM (not active), the EC50 [2] was > 79.4 µM (not active) and the EC50 [3] was > 79.4 µM (not active).

With `CN(C)/C=C/C(=O)c1ccc2noc(-c3ccccc3)c2c1` the AC50 [9] was 2.51 µM (active).

`NC(=O)c1ccsc1NC(=O)CSc1nnc(C2CC2)n1Cc1ccccc1` was tested, and the IC50 [4] was > 50 µM (not active).

`O=C(Nc1ccccc1C(=O)O)c1cccc(C(=O)Nc2ccccc2C(=O)O)c1` was tested, and the IC50 [7] was 54.9 µM (active).
